This is an account of results in patent US7229635B2, “Pharmacotherapeutic process and composition for central nervous system disorders” (Indiana University Research and Technology Corporation, priority 2000, dated 2007).

The subject of experiment [1] is kindled seizures (amygdala). To be noted: delivery of about 10^−6 to about 10^−12 M TRH to the brain; Example 3 and Chepournova et al.; cited from earlier work.
The subject of another experiment is rat hippocampal slices. In words: 50 mM [K+]-stimulated glutamate release from superfused hippocampal slices. Format: cell-based. Conditions: for glutamate at 10 min. post stimulation: control 4.37±1.29, p<0.05; for peak 50 mM [K+]-stimulated glutamate release: control 48.05±8.59, p<0.001. Here is the method:
Enhanced excitatory amino acid release is suspected in pathways associated with seizures and excitotoxicity. In this regard, superfused hippocampal slices were used to investigate whether TRH could inhibit glutamate release in vitro. Rat hippocampi were removed and sliced transversely (500/μm) under low magnification. Slices were weighed, washed in cold saline, transferred to individual tissue chambers floated in a 37°/C. water bath, and were equilibrated in oxygenated (95% O2/5% CO2) Kreb's buffer (KRB) at 37° C. for 120 min. (0.5 ml/min). Slice chambers were then superfused 10 min. with KRB (control), or KRB containing 10 μM, 1 μM, or 0.1 μM TRH, respectively, prior to 5 min. stimulation with modified KRB (50 mM [K^+]±TRH). Fractions (1 min.) were collected during the 5 min. stimulation and for an additional 10 min. (0.5 ml/min.) thereafter, and analyzed for glutamate by HPLC.

The next experiment has as its system Gαq/11 G-proteins. Conditions: sustained TRH exposure to its receptor; cited from earlier work.

Turning to `NC(=O)[C@@H]1CCCN1C(=O)[C@H](Cc1cnc[nH]1)NC(=O)[C@@H]1CCC(=O)N1` [TRH, Thyrotropin-releasing hormone], in experiment [1], the “effect in kindling studies” value is “anticonvulsant”. Further, the figures for the “glutamate at 10 min. post stimulation” value in the experiment with rat hippocampal slices (0.1 μM TRH), in the experiment on rat hippocampal slices (1 μM TRH) and in the experiment with rat hippocampal slices (10 μM TRH) were 1.54±0.43 μMg/fraction, 1.11±0.26 μMg/fraction and 1.35±0.48 μMg/fraction, respectively. In addition, the “peak 50 mM [K+]-stimulated glutamate release” value was 1.38±0.28 μMg/fraction in the experiment with rat hippocampal slices (0.1 μM TRH), 1.54±0.33 μMg/fraction in the experiment with rat hippocampal slices (1 μM TRH) and 2.35±0.50 μMg/fraction with rat hippocampal slices (10 μM TRH). Besides, the “effect on glutamate release by 50 mM [K+] stimulation given 15 min. later” value in the experiment with rat hippocampal slices (perfusion (5 min.) with KRB+10 μM TRH, FIG. 6) was “significantly (p<0.05) blocked glutamate release”. Besides, in the experiment on Gαq/11 G-proteins, the “reduction of Gαq/11 G-proteins” value is given as 20-70%.
